Assay results reported in patent publication US8377944B2, “Thienopyrimidine derivatives” (ASKA Pharmaceutical Co., Ltd., priority 2005, dated 2013).

Tests used:
[1] = molecular target: T1, human recombinant PDE9 protein (Homo sapiens, UniProt O76083); experiment: Measurement of PDE9-inhibiting activity; format: biochemical; settings: human recombinant PDE9, [3H]-cGMP substrate; read-out: Inhibitory Activity (IC50 value) PDE 9
T1 construct: made in house; host or cells: COS-1 cells, transient transfection of pcDNA 3.1(+); supernatant of the cell homogenate
T1 sequence (O76083 whole entry): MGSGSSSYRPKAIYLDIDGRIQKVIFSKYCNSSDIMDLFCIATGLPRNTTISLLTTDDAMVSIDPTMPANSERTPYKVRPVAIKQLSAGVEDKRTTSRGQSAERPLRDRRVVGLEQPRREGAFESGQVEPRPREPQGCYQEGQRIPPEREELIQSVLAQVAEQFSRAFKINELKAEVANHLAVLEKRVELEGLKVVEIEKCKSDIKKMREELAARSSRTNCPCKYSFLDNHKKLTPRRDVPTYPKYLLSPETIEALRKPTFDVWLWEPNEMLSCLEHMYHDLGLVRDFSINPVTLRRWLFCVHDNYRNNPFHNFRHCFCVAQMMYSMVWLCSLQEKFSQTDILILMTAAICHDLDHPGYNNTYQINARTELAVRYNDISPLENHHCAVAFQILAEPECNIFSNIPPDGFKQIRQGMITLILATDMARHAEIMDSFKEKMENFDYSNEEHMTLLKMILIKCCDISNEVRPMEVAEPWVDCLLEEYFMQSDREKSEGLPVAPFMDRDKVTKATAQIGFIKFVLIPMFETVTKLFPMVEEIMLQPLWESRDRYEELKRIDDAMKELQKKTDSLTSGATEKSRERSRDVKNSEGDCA
Source text: (1) Measurement of PDE9-Inhibiting Activity:
1) Preparation of Human Recombinant PDE9 Protein
Based on the base sequence of hsPDE9A1 registered with GenBank database (accession No.: AF048837), hsPDE9A1 fragment was amplified by polymerase chain reaction under the following conditions, using the following sequence (Amasham Pharmacia Biotech) as the primer and Human Prostate […] cDNA library (CLONTECH) as the template DNA, with Pfu Turbo DNA polymerase ([…]):
hPDE9-5A primer: […] [SEQ ID NO: 1]
hPDE9-3A primer: […] [SEQ ID NO: 2]
PCR condition: [95° C., 5 min]×1 cycle, [(95° C., 1 min), (58° C., 2 min), (72° C., 3 min)]×25 cycle, [72° C., 10 min]×1 cycle
Thus obtained hsPDE9A1 fragment was given a restricted enzymatic treatment with NheI and NotI, and thereafter inserted into pcDNA 3.1(+) expression vector (Invitrogen) to let it serve as a human PDE9 expression vector.
Human PDE9 expression vector-transformed Escherichia coli was mass incubated to produce a large amount of PDE9 expression vector, which was transiently transfected into COS-1 cells, with LIPOFECTAMINE 2000 Reagent (GIBCO). […]
To 150 μL of buffer B (70 mmol/L Tris-HCl, pH7.5; 16.7 mmol/L MgCl2, 33.3 nmol/L [^3H]-cGMP) solution containing [^3H]-cGMP (specific activity=244.2 GBq/mmol) at a concentration of 33.3 nmol/L, 50 μL of a solution of the compound to be evaluated (formed by dissolving the compound in DMSO and diluting it with distilled water to DMSO concentration of 5%) and 50 μL of the PDE9 protein solution as prepared in the above, as diluted with buffer C (40 mmol/L Tris-HCl, pH7.5, 15 mmol/L benzamidine, 15 mmol/L 2-mercaptoethanol, 1 μg/mL Pepstatin A, 1 μg/mL Leupeptin) by 1,500×, were added under cooling with ice. […] Thereafter [^3H]-guanosine was eluted with 3 mL of 3 mol/L aqueous ammonia and its radiation activity was measured with liquid scintillation counter.
PDE9 inhibition of the tested compound can be calculated by the following formula: […]
From the inhibition ratios at various concentration levels of each tested compound, its IC50 value against PDE9 was determined.

[2] = molecular target: T2, human recombinant PDE5 protein (Homo sapiens, UniProt O76074); experiment: Measurement of PDE5-inhibiting activity; format: biochemical; settings: human recombinant PDE5, [3H]-cGMP substrate; read-out: Inhibitory Activity (IC50 value) PDE 5
T2 construct: made in house; host or cells: COS-1 cells, transient transfection of pcDNA 3.1(+); supernatant of the cell homogenate
Source text: (2) Measurement of PDE5-Inhibiting Activity:
1) Preparation of Human Recombinant PDE5 Protein
Based on the base sequence of hsPDE5A1 registered with GenBank database (accession No.: NM_001083), hsPDE5A1 fragment was amplified by polymerase chain reaction under the following conditions, using the following sequence (SIGMA GENOSYS) as the primer and Human Prostate […] cDNA library (CLONTECH) as the template DNA, with KDD plus DNA polymerase (TOYOBO): […]
hPDE5-5′E primer: […] [SEQ ID NO: 3] […]
hPDE5-3′ primer: […] [SEQ ID NO: 4]
PCR condition: [94° C., 2 min]×1 cycle, [(94° C., 30 sec), (65° C., 30 sec), (68° C., 3 min)]×25 cycle, [68° C., 6 min]×1 cycle Thus obtained hsPDE5A1 fragment was given a restricted enzymatic treatment with XBaI and EcoRI, and thereafter inserted into pcDNA 3.1(+) expression vector (Invitrogen) to let it serve as a human PDE5 expression vector.
Human PDE5 expression vector-transformed Escherichia coli was mass incubated to produce a large amount of PDE5 expression vector, which was transiently transfected into COS-1 cells, with LIPOFECTAMINE 2000 Reagent (GIBCO). The cells were homogenized in ice-cooled buffer A and centrifuged at 4° C., 14,000×g for 10 minutes. The supernatant was isolated to provide human recombinant PDE5 protein solution.
2) Measurement of PDE5-Inhibiting Activity
By a method similar to the measurement of PDE9-inhibiting activity, PDE5-inhibiting activity of the test compounds was measured, their inhibition was calculated and IC50 value to PDE5 of each of the compounds was determined. The results are shown in the following Table A, concurrently with the compounds' IC50 values against PDE9.

Cc1c(C(=O)O)sc2nc(Cc3ccc(F)c(Cl)c3)[nH]c(=O)c12 [Example 52, 2-(3-Chloro-4-fluorobenzyl)-5-methyl-4-oxo-3,4-dihydrothieno[2,3-d]pyrimidine-6-carboxylic acid]
IC50 [1]: 38 nM | IC50 [2]: 3.42 µM
